# According to patent US12215133B2 (BrightGene Bio-Medical Technology Co., Ltd., priority 2021, dated 2025):
# System: db/db mice
# Experiment: Hypoglycemic effect of BG121 and BG128 in db/db mice (Experimental Example 2)
# Type: in vivo
# Details: for glycosylated hemoglobin content in serum vs solvent control / insulin content in serum vs solvent control: 25 days after administration; for glycosylated hemoglobin content in serum vs solvent control: FIG. 6; for insulin content in serum vs solvent control: FIG. 7; for body weight vs solvent control: day 4, 7, 10, 13, 16, 19, 22, FIG. 5; for non-fasting blood glucose vs solvent control: FIG. 3
# Procedure: Germline: BKS mice (db/db mice); source: Gempharmatech Co., Ltd.; license key: SCXK (SU) 2018-0008; certificate number: 202100117; grade: SPF; number: 32; gender: male; age: 8 weeks (at the beginning of modeling); animal identification: ear tag.
# Feeding conditions: temperature: 22±2° C.; humidity: 40%-70%; lighting: artificial lighting simulates day and night changes; drinking water: free to drink; feed: mouse breeding feed, wherein the mice were fasted overnight before determining fasting blood sugar, and the mice were free to eat for the rest of the time.
# Formulation of BG128 (1 mg/ml) stock solution: a certain amount of BG128 was weighed, an appropriate volume of solvent (20 mM citric acid, pH 7.0) was added, and the mixture was sub-packaged at 100 μl/tube and frozen at −80° C. for later use;
# BG128 (0.0151 mg/ml, for 30 nmol/kg administration): 90 μL of the 1 mg/mL stock solution was taken and added to a 10 mL EP together with 810 μL of the solvent, the mixture was homogeneously mixed in a vortex mixer, then 5044 μL of the solvent was added, and the mixture was homogeneously mixed in a vortex mixer and used up on the same day;
# BG128 (0.0050 mg/ml, for 10 nmol/kg administration): 2 mL of BG128 ([…]) were taken, and 4 mL of the solvent was added, and the mixture was homogeneously mixed in a vortex mixer and used up on the same day.
# 32 SPF-grade male BKS-DB mice (db/db mice) were fed adaptively for 1 week. […] During the experiment, the experimenters need to observe the signs and health conditions of the experimental animals. Any abnormal manifestations of animals, such as pain, depression, decreased activity, etc., should be recorded in the original experimental records. If the abnormal manifestations of the experimental animals exceed the regulations in relevant documents for animal welfare, the animal can be euthanized after being notified.
# Modeling method: db/db mice would develop spontaneous type 2 diabetes after being fed for 6 weeks, and the mice would develop symptoms, such as obesity, insulin resistance and hyperglycemia;
# Mode of administration: it was intended to use subcutaneous injection by the clinical route of administration, the volume of administration is: 10 mL/kg, once every 3 days, for 22 consecutive days;
# Fasting blood glucose determination: according to the above-mentioned animal grouping and administration dose, the fasting blood glucose of the mice was determined two days before the first administration and the body weight was determined. […] The fasting blood glucose levels were determined on day 7, 13, 19, and 25 after the first administration (changing the bedding and fasting before the fasting blood glucose determination), and the mice were fasted;
# Non-fasting blood glucose determination: the blood glucose was determined at time points of 1, 3, 6, 24, 48, and 72 hours after the first administration;
# Body weight determination: determined twice a week;
# Food intake determination: determined twice a week.
# After 25 days of administration, blood samples were collected by picking the eyeballs, and the serum insulin and glycosylated hemoglobin contents of the mice were determined respectively.
# All reported determination data was calculated using GraphPad prism8.0 software for group mean and standard deviation.
# [1] = 10 nmol/kg s.c. once every 3 days
# [2] = 30 nmol/kg s.c. once every 3 days
smiles,measurement,setting,value
CNC(CCCCNC(=O)COCCOCCOCCNC(=O)COCCOCCOCCNC(=O)CCC(NC(=O)CC(=O)O)C(=O)O)C(N)=O (stereo not drawn) [BG128],glycosylated hemoglobin content in serum vs solvent control,[1],no significant difference
same,insulin content in serum vs solvent control,[1],significantly lower than that in the solvent control group
same,body weight vs solvent control,[1],no significant difference
same,non-fasting blood glucose vs solvent control,"10 nmol/kg s.c., 1, 3, 6, 24, 48 and 72 h after first administration",reduce the blood glucose at each time point after the administration in a dose dependent manner
same,glycosylated hemoglobin content in serum vs solvent control,[2],significantly lower than that in the BG121 (30 nmol/kg) administration group and the solvent control group
same,insulin content in serum vs solvent control,[2],significantly lower than that in the solvent control group
same,body weight vs solvent control,[2],significantly lower than that in the solvent control group and the BG121 (30 nmol/kg) administration group
same,fasting blood glucose vs solvent control,"30 nmol/kg s.c. once every 3 days, day 19 and 25 after first administration, FIG. 4",significantly reduce the fasting blood glucose level
same,non-fasting blood glucose vs solvent control,"30 nmol/kg s.c., 1, 3, 6, 24, 48 and 72 h after first administration",reduce the blood glucose at each time point after the administration in a dose dependent manner
